In patent US10485881B2, “Nanoparticle drug conjugates” (Memorial Sloan Kettering Cancer Center, priority 2014, dated 2019):
Entries after “also recorded” stand apart in the source; their conditions may differ. Like-named read-outs stand apart in the source and are kept apart here.

Assays:
cathepsin B = cathepsin B (Homo sapiens, UniProt P07858); test: Drug release assay with cathepsin B; type: biochemical; details: free linker-drug constructs; for Hydrolysis / drug release in the presence of cathepsin B: monitored by HPLC or LCMS; for half-life at 25 μM: HPLC at 348 nm, sodium acetate buffer pH 5.0, NH = no hydrolysis, read-out: Cathepsin B t1/2 (time when 50% of the drug is released from linker)
Procedure: Drug Release Assays with Cathepsin B:
For analysis, 70 μL portions were removed and quenched with acid (HCl) at specified time points (e.g., 5, 15, 30, 60, 120 minutes or longer) then run on HPLC/LCMS. NDCs were stored in water at 4° C. […] Enzyme activity was tested prior to drug release assay using the substrate Z-Arg-Arg-para-nitro-aniline. The % Free Drug (FIGS. 4A, 4B, 6A and 6B) is the quantity of free drug divided by the initial quantity of drug loaded for the linker-drug construct or NDC, as described in the previous paragraph. All buffers and solutions were prepared using ultra-pure water (18 MΩ-cm resistivity).

trypsin = biological target: T1, trypsin (Bos taurus, UniProt P00760); test: Drug release assay with trypsin; type: biochemical, bovine; details: for half-life at 25 μM: bovine, pH 7.2, free linker-drug constructs, HPLC at 348 nm, 37° C., phosphate buffer pH 7.2, read-out: Trypsin t1/2 (time when 50% of the drug is released from linker); for Time to complete hydrolysis / complete release of drug with trypsin: free linker-drug constructs, monitored by HPLC or LCMS
T1 construct: purchased Sigma-Aldrich
T1 sequence (P00760 24-246): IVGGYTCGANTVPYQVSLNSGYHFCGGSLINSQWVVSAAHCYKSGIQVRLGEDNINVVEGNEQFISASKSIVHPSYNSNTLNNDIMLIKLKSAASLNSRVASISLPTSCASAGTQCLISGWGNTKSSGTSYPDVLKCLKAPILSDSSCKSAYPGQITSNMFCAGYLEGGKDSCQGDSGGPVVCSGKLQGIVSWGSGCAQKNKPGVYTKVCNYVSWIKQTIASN
Procedure: Drug Release Assays with Trypsin:
For analysis, 70 μL portions were removed and quenched with acid (HCl) at specified time points (e.g., 5, 15, 30, 60, 120 minutes or longer) then run on HPLC/LCMS. NDCs were stored in water at 4° C. Trypsin stocks were prepared as follows: 1 mg of trypsin was dissolved in 1 mL water, aliquoted, then immediately flash frozen and stored at −80° C. for up to four weeks. Enzyme activity was tested prior to drug release assay using the substrate Z-Arg-Arg-para-nitro-aniline. The % Free Drug (FIGS. 3 and S3) is the quantity of free drug divided by the initial quantity of drug loaded for the linker-drug construct or NDC. The quantity of free drug is determined by area of the HPLC peak corresponding to the released drug at 348 nm. The quantity of drug loaded is the area of the HPLC peak, at 348 nm, for the linker-drug construct or NDC prior to enzyme treatment. As the C'dot-(Cy5)-PEG-mal has background absorbance at 348 nm, a background subtraction for the NDC is necessary. All buffers and solutions were prepared using ultra-pure water (18 Me-cm resistivity).

[1] = biological target: EGFR (phospho-Tyr168) in H1650 cells (Homo sapiens, UniProt P00533, DEL746-750); test: PhosphoEGFR assay with H1650 cells (western blot); details: 1 and 10 μM, compared with gefitinib
Procedure: Serum starved cells were incubated with each compound over a period of 18 hours, then subject to EGF stimulation.
PhosphoEGFR Assay with H1650 Cells:
H1650 cells were seeded (1.5 million cells) in 6-well plates with 2 ml of 10% FBS DEM medium and grown for 24 hrs. Cells were washed with 1 mL of serum free DEM medium, then incubated with gefitinib or NDCs at indicated concentrations overnight (18 hrs). Cells were then treated with 50 ng/mL EGF for 5 minutes, then washed with 1 mL of PBS. […] 1 mL of 10% FBS DEM medium was added to wells, and cells were transferred to 15 mL conical tubes containing 10 mL of 10% FBS DEM medium. Cells were spun down at 3000 rpm for 5 minutes at 4° C. The cell pellets were washed with 1 mL cold PBS, transferred to 1.5 mL tubes, and spun down. PBS was decanted and 70 μL of RIPA (containing protease and phosphatase inhibitors) was added to the pellet, titurated, and incubated for 10 minutes on ice. Tubes were spun at maximum speed for 10 minutes at 4° C. Lysate was transferred to new 1.5 ml tubes and stored at −80° C. Protein concentrations were determined by the Bradford assay. Western blots were run on a Life Technologies apparatus, using Novex 8% tris-glycine gels (1.5 mm×15 wells), tris-glycine SDS running buffer, NuPAGE transfer buffer, 0.1% Tween-20 in 1×TBS washing buffer, and 5% milk in the washing buffer as the blocking buffer. […]

| Inhibition of phospho-Tyr168 in EGFR [1] | Compound | Hydrolysis / drug release in the presence of cathepsin B (cathepsin B) | half-life at 25 μM (trypsin) | Time to complete hydrolysis / complete release of drug with trypsin (trypsin) | half-life at 25 μM (cathepsin B) | half-life at 25 μM (cathepsin B; cathepsin B (isolated enzyme)) |
| --- | --- | --- | --- | --- | --- | --- |
| – | COc1cc2ncnc(Nc3ccc(F)c(Cl)c3)c2cc1OCCCNC(=O)[C@H](CCCNC(=N)N)NC(=O)[C@H](Cc1ccccc1)NC(=O)CCOCCOCCNC(=O)CCOCCOCCNC(=O)CCOCCOCCNC(=O)CS [Phe-Arg-APdMG (3), Mercaptoacetamido-(dPEG2)3-Phe-Arg-APdMG] | no hydrolysis was observed; also recorded: no drug release was observed | 9 min | ≤ 60 min | – | – |
| – | COc1cc2ncnc(Nc3ccc(F)c(Cl)c3)c2cc1OCCCNC(=O)CCOCCOCCNC(=O)[C@H](CCCNC(=N)N)NC(=O)[C@H](Cc1ccccc1)NC(=O)CCOCCOCCNC(=O)CCOCCOCCNC(=O)CCOCCOCCNC(=O)CS [Phe-Arg-dPEG2APdMG (4), Mercaptoacetamido-(dPEG2)3-Phe-Arg-dPEG2APdMG] | completely hydrolyzed | ≤ 2 min | 10 min | 110 min | – |
| – | COc1cc2ncnc(Nc3ccc(F)c(Cl)c3)c2cc1OCCCNC(=O)OCc1ccc(NC(=O)[C@H](CCCCN)NC(=O)[C@H](Cc2ccccc2)NC(=O)CCOCCOCCOCCOCCOCCOCCOCCOCCS)cc1 [Phe-Lys-PABC-APdMG (5), HS-dPEG8-Phe-Lys-PABC-aminopropyl-dMG] | – | < 1 min | 10 min | – | < 1 min |
| reduced activity | Amino-dPEG2-aminopropyl-dMG [dPEG2APdMG 2] | – | – | – | – | – |
